Source: patent publication US11833158B2, “Compositions comprising omega-3 fatty acids, 17-HDHA and 18-HEPE and methods of using same” (Solutex NA LLC, priority 2015, dated 2023)

System: PMA-stimulated THP-1 cells
Assay: Phagocytosis of opsonized zymosan bioparticles in PMA-stimulated THP-1 cells (fluorescence)
Format: cell-based, human
Conditions: oils diluted 1/10^3; Mar-1 at 1 nM; 15 min pretreatment, 60 min incubation with zymosan
Protocol: To determine the capacity of promoting a macrophage pro-resolution phenotype (i.e. M2) and therefore to foster the resolution of inflammation, several oils were tested in a human macrophage model adapted by López Vicario C from a method previously described (Titos et al., 2011) and compared with Mar-1 (the term Maresins is coined from Macrophage mediator in resolving inflammation), an established active compound in resolution of the inflammation.
THP-1 cells were cultured in a 96-well black plate at a density of 3.5×10^4 cells/well in 200 μl RPMI 1640 medium (10% FBS). […]
The compounds tested in this macrophage model were: • Maresin 1 (from Cayman Chemicals) • LM03-1 (a total amount of Omega-3 of about 629.9 mg/g (as FFA), DHA in an amount of about 342.1 mg/g (as FFA), EPA in an amount of about 187.6 mg/g (as FFA), 17-HDHA in an amount of about 60.8 mg/kg and 18-HEPE in an amount of about 87.5 mg/kg with 1.4 mg/g of a mixed natural tocopherols—3624 EE (about 33.0% EPA ethyl ester and about 22% DHA in ethyl ester form expressed as FFA) • Omacor (about 42.5% EPA ethyl ester and about 34.5% DHA in ethyl ester form expressed as FFA)
The concentration of Mar-1 used in the experiment was 1 nM, which has been determined the concentration with maximum activity in phagocytic activation for this compound in previous experiments using this model (data not shown). […]

CC/C=C\C/C=C\C[C@H](O)/C=C/C=C/C=C/[C@H](O)C/C=C\CCC(=O)O [Maresin-1, 7R,14S-dihydroxy-4Z,8E,10E,12E,16Z,19Z-docosahexaenoic acid]
phagocytic activity relative to Mar-1 (100% assigned to Mar-1 1 nM): 100%
